The conditions of data set [1]: mouse, in vivo. On the procedure: Mice. 6-8 week old Balb/c nude mice (CAnN.Cg-Foxn1nu/Crl) were purchased from Charles River Laboratories. Mice were injected with 10^6 IDH WT or mutant primary glioma cells sub-cutaneously in the right flank. When the tumors were about 25 mm^2, ATRA treatment was started. 10 mg/Kg ATRA was administered to mice intra-peritoneally (i.p.) every alternate day until termination of the experiment. DMSO-treated mice were used as controls. The mice were monitored for signs of drug toxicity such as weight-loss, lethargy, skin lesions and diarrhea. The tumors were measured every 3 days, and the mice were sacrificed when the tumors were about 400 mm^2. For NK depletion experiments, 6-week old B6 nude mice (B6.Cg-Foxn1nu/J) were purchased from The Jackson Laboratory. NK depletion was performed by injecting mice with 200 μg of anti-NK1.1 antibody (Biolegend) i.p. on the day ATRA treatment was started. Mice injected with 200 μg of an isotype antibody were used as controls. Mice were bled and evaluated for circulating NKs by flow cytometry.
Retinoic acid has been used as a chemotherapeutic agent in a wide variety of cancers, in pre-clinical as well as clinical applications. 13-cis-RA is the most common form of RA used in clinics, and is effective in a variety of neoplasms. Therefore, the efficacy of 13-cis RA was compared with ATRA and Bexarotene (a synthetic retinoic acid analogue) in IDH mutant gliomas.

In data set [2] the test system is RBP1-transduced IDH mutant cells. The experiment in a line: RBP1 overexpression with retinol: NK cytotoxicity and gene expression. The class given is cell-based, human. On the procedure: For RBP1 overexpression studies, IDH mutant glioma cells were transduced with RBP1 expressing lentiviral vectors (Origene Inc) for 3 hours. The cells were maintained in CM containing 10 μg/ml Puromycin to select for lentivirus-transduced cells. Cells transduced with a mock lentiviral vector were used as controls.
NK cytotoxicity assay. The flow cytometric CFSE/7-AAD cytotoxicity assay was performed as previously described with slight modifications. Astrocytes or Glioma cells (5×10^5) were labeled with 500 nM CFSE (from a 1 mM stock solution in dimethyl sulfoxide [Sigma] stored at −20° C.) in PBS for 15 min at 37° C. The cells were then washed twice in complete medium and used immediately for the cytotoxicity assay. The CFSE-labeled target cells (25,000 cells) were used at E (effector):T (target) ratios of 1:10. After 6 h incubation, the cells were stained with 0.25 μg/ml of 7-AAD and analyzed by flow cytometry.
Quantitative Real time RT-PCR. 5×10^5 IDH mutant and WT astrocytes, as well as patient glioma cells were lyzed in Trizol and RNA was extracted from the cells using the Chloroform extraction method. cDNA was transcribed from the RNA using iScript cDNA synthesis kit (BioRad). Real-time PCR was performed on an CFX96 Touch™ Real-Time PCR Detection System (Bio-Rad) equipped with a 96-well reaction plate. Briefly, 2 μL cDNA was added to 5 μL of the 2×SYBR Green PCR mastermix (Thermo Scientific), 800 nM of each primer, and water was added to 10 μL. The thermal denaturation protocol was run at the end of the PCR to determine the number of products that were present in the reaction. Reactions were typically run in triplicates. The cycle number at which the reaction crossed an arbitrarily-placed threshold (CT) was determined for each gene and the relative amount of each gene to 18 S rRNA was described using the equation 2^−ΔCT where ΔCT=(CTtargetRNA−CT18S rRNA).
RBP1 overexpression reverses immune evasion in IDH mutant gliomas. […] Cells were analyzed for NK cytotoxicity and gene expression of RA pathway genes. […]

[3] abbreviates: retinol added to RBP1-transduced IDH mutant cells, to wild type expression levels.

Consider `C=C(c1ccc(C(=O)O)cc1)c1cc2c(cc1C)C(C)(C)CCC2(C)C` [Bexarotene], for which, in data set [1], the “toxicity in treated mice (weight loss and wasting)” value was “Higher levels of toxicity”.
In the case of `CC1=C(/C=C/C(C)=C/C=C/C(C)=C/CO)C(C)(C)CCC1` [retinol], the “recognition and killing by NK cells” value in data set [2] (10 μM retinol in medium of RBP1-transduced IDH mutant cells) was “significantly increased recognition and killing by NK cells”. In addition, in data set [2] (setting [3]), the “expression of NKG2D ligands (ULBP1, ULBP3)” value is on record as “restored expression” and the “expression of RA pathway genes” value is “restored expression”.
In the case of `CC1=C(/C=C/C(C)=C/C=C/C(C)=C\C(=O)O)C(C)(C)CCC1` [13-cis RA, 13-cis retinoic acid], the “toxicity in treated mice (weight loss and wasting)” value in data set [1] is “Higher levels of toxicity”.

These data come from patent publication US10821091B2, “Retinoid compositions and methods of increasing immune cell-mediated killing of IDH mutant cancer cells” (UNIVERSITY OF PITTSBURGH—OF THE COMMONWEALTH SYSTEM OF …, priority 2017, dated 2020).
